Measured values reported in PubChem BioAssay (NCI).
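Cells were grown in 96-well plates and exposed to each compound for 48 hours at five concentrations; endpoints were interpolated linearly between bracketing concentrations, or set to the highest concentration if not reached. TGI denotes the concentration required for complete inhibition of growth.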

What was measured:
Experiment in all cases: NCI tumour cell line growth inhibition, 48 h
U251 CNS = test system: U251 CNS
LOX IMVI melanoma = test system: LOX IMVI melanoma
BT-549 breast = test system: BT-549 breast
NCI-H23 lung = test system: NCI-H23 lung
CCRF-CEM leukemia = test system: CCRF-CEM leukemia
UACC-257 melanoma = test system: UACC-257 melanoma
SN12C renal = test system: SN12C renal
HCT-116 colon = test system: HCT-116 colon
SF-295 CNS = test system: SF-295 CNS
UACC-62 melanoma = test system: UACC-62 melanoma
HS 578T breast = test system: HS 578T breast
OVCAR-4 ovarian = test system: OVCAR-4 ovarian
M14 melanoma = test system: M14 melanoma
RXF 393 renal = test system: RXF 393 renal
NCI-H522 lung = test system: NCI-H522 lung
SF-539 CNS = test system: SF-539 CNS
SW-620 colon = test system: SW-620 colon
TK-10 renal = test system: TK-10 renal
IGROV1 ovarian = test system: IGROV1 ovarian
PC-3 prostate = test system: PC-3 prostate
OVCAR-8 ovarian = test system: OVCAR-8 ovarian
MOLT-4 leukemia = test system: MOLT-4 leukemia
NCI-H226 lung = test system: NCI-H226 lung
MCF7 breast = test system: MCF7 breast
HT29 colon = test system: HT29 colon
HOP-62 NSCLC = test system: HOP-62 NSCLC
SK-OV-3 ovarian = test system: SK-OV-3 ovarian
SF-268 CNS = test system: SF-268 CNS
SK-MEL-2 melanoma = test system: SK-MEL-2 melanoma
MDA-MB-435 = test system: MDA-MB-435
COLO 205 colon = test system: COLO 205 colon
HOP-92 NSCLC = test system: HOP-92 NSCLC
DU-145 prostate = test system: DU-145 prostate
NCI-H460 lung = test system: NCI-H460 lung
UO-31 renal = test system: UO-31 renal
KM12 colon = test system: KM12 colon
SNB-75 CNS = test system: SNB-75 CNS
SK-MEL-5 melanoma = test system: SK-MEL-5 melanoma
OVCAR-3 ovarian = test system: OVCAR-3 ovarian
786-0 renal = test system: 786-0 renal
HCT-15 colon = test system: HCT-15 colon
MDA-MB-231 breast = test system: MDA-MB-231 breast
HCC-2998 colon = test system: HCC-2998 colon
OVCAR-5 ovarian = test system: OVCAR-5 ovarian
SNB-19 CNS = test system: SNB-19 CNS
HL-60(TB) leukemia = test system: HL-60(TB) leukemia
CAKI-1 renal = test system: CAKI-1 renal
SK-MEL-28 melanoma = test system: SK-MEL-28 melanoma
MDA-N = test system: MDA-N
NCI/ADR-RES ovarian = test system: NCI/ADR-RES ovarian
ACHN renal = test system: ACHN renal
EKVX NSCLC = test system: EKVX NSCLC
A549 NSCLC = test system: A549 NSCLC
T-47D breast = test system: T-47D breast
K-562 leukemia = test system: K-562 leukemia
MALME-3M melanoma = test system: MALME-3M melanoma
SR leukemia = test system: SR leukemia
RPMI-8226 leukemia = test system: RPMI-8226 leukemia
A498 renal = test system: A498 renal

SMILES: COC(=O)C(=O)C(C(=O)C(=O)Nc1ccc(C)cc1C)c1nc2ccc(Cl)cc2[nH]c1=O (centres undefined)
- TGI (U251 CNS): > 100 µM
- TGI (LOX IMVI melanoma): > 100 µM
- TGI (BT-549 breast): > 100 µM
- TGI (NCI-H23 lung): > 100 µM
- TGI (CCRF-CEM leukemia): > 100 µM
- TGI (UACC-257 melanoma): > 100 µM
- TGI (SN12C renal): > 100 µM
- TGI (HCT-116 colon): > 100 µM
- TGI (SF-295 CNS): > 100 µM
- TGI (UACC-62 melanoma): > 100 µM
- TGI (HS 578T breast): > 100 µM
- TGI (OVCAR-4 ovarian): > 100 µM
- TGI (M14 melanoma): > 100 µM
- TGI (RXF 393 renal): > 100 µM
- TGI (NCI-H522 lung): > 100 µM
- TGI (SF-539 CNS): > 100 µM
- TGI (SW-620 colon): > 100 µM
- TGI (TK-10 renal): > 100 µM
- TGI (IGROV1 ovarian): > 100 µM
- TGI (PC-3 prostate): > 100 µM
- TGI (OVCAR-8 ovarian): > 100 µM
- TGI (MOLT-4 leukemia): > 100 µM
- TGI (NCI-H226 lung): > 100 µM
- TGI (MCF7 breast): > 100 µM
- TGI (HT29 colon): > 100 µM
- TGI (HOP-62 NSCLC): > 100 µM
- TGI (SK-OV-3 ovarian): > 100 µM
- TGI (SF-268 CNS): > 100 µM
- TGI (SK-MEL-2 melanoma): > 100 µM
- TGI (MDA-MB-435): > 100 µM
- TGI (COLO 205 colon): > 100 µM
- TGI (HOP-92 NSCLC): > 100 µM
- TGI (DU-145 prostate): > 100 µM
- TGI (NCI-H460 lung): > 100 µM
- TGI (UO-31 renal): > 100 µM
- TGI (KM12 colon): > 100 µM
- TGI (SNB-75 CNS): > 100 µM
- TGI (SK-MEL-5 melanoma): > 100 µM
- TGI (OVCAR-3 ovarian): > 100 µM
- TGI (786-0 renal): > 100 µM
- TGI (HCT-15 colon): > 100 µM
- TGI (MDA-MB-231 breast): > 100 µM
- TGI (HCC-2998 colon): > 100 µM
- TGI (OVCAR-5 ovarian): > 100 µM
- TGI (SNB-19 CNS): > 100 µM
- TGI (HL-60(TB) leukemia): > 100 µM
- TGI (CAKI-1 renal): > 100 µM
- TGI (SK-MEL-28 melanoma): > 100 µM
- TGI (MDA-N): > 100 µM
- TGI (NCI/ADR-RES ovarian): > 100 µM
- TGI (ACHN renal): > 100 µM
- TGI (EKVX NSCLC): > 100 µM
- TGI (A549 NSCLC): > 100 µM

SMILES: CC(=O)c1ccc(Nc2c3ccccc3nc3occc23)cc1
- TGI (T-47D breast): 32.8 µM
- TGI (K-562 leukemia): > 100 µM
- TGI (U251 CNS): > 4.64 µM
- TGI (LOX IMVI melanoma): > 100 µM
- TGI (BT-549 breast): > 100 µM
- TGI (NCI-H23 lung): 17.1 µM
- TGI (CCRF-CEM leukemia): 4.46 µM
- TGI (UACC-257 melanoma): 48.8 µM
- TGI (SN12C renal): 56.4 µM
- TGI (HCT-116 colon): > 34.7 µM
- TGI (UACC-62 melanoma): 10.7 µM
- TGI (M14 melanoma): 2.92 µM
- TGI (RXF 393 renal): < 0.0216 µM
- TGI (NCI-H522 lung): < 0.01 µM
- TGI (MALME-3M melanoma): 29.4 µM
- TGI (SW-620 colon): > 100 µM
- TGI (TK-10 renal): 15.7 µM
- TGI (SR leukemia): 18.5 µM
- TGI (IGROV1 ovarian): 0.607 µM
- TGI (PC-3 prostate): > 100 µM
- TGI (OVCAR-8 ovarian): 7.01 µM
- TGI (MOLT-4 leukemia): 32.2 µM
- TGI (NCI-H226 lung): 45.2 µM
- TGI (MCF7 breast): < 0.128 µM
- TGI (HT29 colon): 0.402 µM
- TGI (HOP-62 NSCLC): > 100 µM
- TGI (SK-OV-3 ovarian): 13.2 µM
- TGI (SF-268 CNS): 7.49 µM
- TGI (SK-MEL-2 melanoma): 0.0645 µM
- TGI (MDA-MB-435): < 0.01 µM
- TGI (COLO 205 colon): 0.136 µM
- TGI (HOP-92 NSCLC): 83.5 µM
- TGI (DU-145 prostate): 5.39 µM
- TGI (NCI-H460 lung): 0.453 µM
- TGI (UO-31 renal): > 100 µM
- TGI (KM12 colon): 1.59 µM
- TGI (SK-MEL-5 melanoma): 3.91 µM
- TGI (RPMI-8226 leukemia): 4.28 µM
- TGI (786-0 renal): 3.19 µM
- TGI (HCT-15 colon): > 42.8 µM
- TGI (MDA-MB-231 breast): 0.541 µM
- TGI (HCC-2998 colon): 0.794 µM
- TGI (A498 renal): 12.6 µM
- TGI (OVCAR-5 ovarian): > 100 µM
- TGI (SNB-19 CNS): > 100 µM
- TGI (HL-60(TB) leukemia): < 0.01 µM
- TGI (CAKI-1 renal): 4.68 µM
- TGI (SK-MEL-28 melanoma): 50 µM
- TGI (MDA-N): < 0.01 µM
- TGI (ACHN renal): > 72.5 µM
- TGI (EKVX NSCLC): > 45.9 µM
- TGI (A549 NSCLC): > 35.1 µM

SMILES: Cc1sc2nc3n(c(=O)c2c1C)N=CN(c1ccc(Cl)cc1)C3
- TGI (K-562 leukemia): > 100 µM
- TGI (U251 CNS): > 100 µM
- TGI (LOX IMVI melanoma): > 100 µM
- TGI (BT-549 breast): > 100 µM
- TGI (NCI-H23 lung): > 100 µM
- TGI (CCRF-CEM leukemia): > 100 µM
- TGI (UACC-257 melanoma): > 100 µM
- TGI (SN12C renal): > 100 µM
- TGI (HCT-116 colon): > 100 µM
- TGI (SF-295 CNS): > 100 µM
- TGI (UACC-62 melanoma): > 100 µM
- TGI (OVCAR-4 ovarian): > 100 µM
- TGI (M14 melanoma): > 100 µM
- TGI (RXF 393 renal): > 100 µM
- TGI (NCI-H522 lung): > 100 µM
- TGI (MALME-3M melanoma): > 100 µM
- TGI (SW-620 colon): > 100 µM
- TGI (TK-10 renal): > 100 µM
- TGI (SR leukemia): > 100 µM
- TGI (IGROV1 ovarian): > 100 µM
- TGI (PC-3 prostate): > 100 µM
- TGI (OVCAR-8 ovarian): > 100 µM
- TGI (MOLT-4 leukemia): > 100 µM
- TGI (NCI-H226 lung): > 100 µM
- TGI (HT29 colon): > 100 µM
- TGI (HOP-62 NSCLC): > 100 µM
- TGI (SK-OV-3 ovarian): > 100 µM
- TGI (SF-268 CNS): > 100 µM
- TGI (SK-MEL-2 melanoma): > 100 µM
- TGI (MDA-MB-435): > 100 µM
- TGI (COLO 205 colon): > 100 µM
- TGI (HOP-92 NSCLC): > 100 µM
- TGI (DU-145 prostate): > 100 µM
- TGI (NCI-H460 lung): > 100 µM
- TGI (UO-31 renal): > 100 µM
- TGI (KM12 colon): > 100 µM
- TGI (SNB-75 CNS): > 100 µM
- TGI (SK-MEL-5 melanoma): > 100 µM
- TGI (OVCAR-3 ovarian): > 100 µM
- TGI (RPMI-8226 leukemia): > 100 µM
- TGI (786-0 renal): > 100 µM
- TGI (HCT-15 colon): > 100 µM
- TGI (MDA-MB-231 breast): > 100 µM
- TGI (HCC-2998 colon): > 100 µM
- TGI (A498 renal): > 100 µM
- TGI (OVCAR-5 ovarian): > 100 µM
- TGI (SNB-19 CNS): > 100 µM
- TGI (CAKI-1 renal): > 100 µM
- TGI (SK-MEL-28 melanoma): > 100 µM
- TGI (MDA-N): > 100 µM
- TGI (NCI/ADR-RES ovarian): > 100 µM
- TGI (ACHN renal): > 100 µM
- TGI (EKVX NSCLC): > 100 µM
- TGI (A549 NSCLC): > 100 µM
